Data on six compounds can be found in patent publication US10077236B2, “Azacyclic constrained analogs of FTY720” (The Regents of the University of California, priority 2013, dated 2018).

Like-named read-outs stand apart in the source and are kept apart here.

For series [1], the system named is Sup-B15 BCR-ABL positive human acute lymphoblastic leukemia (ALL) cell line. Briefly: Cell viability assay, Sup-B15 leukemia cells (flow cytometry, vital dye exclusion). The conditions noted are these: for ability to kill leukemia cells, potency compared in words: Sup-B15 cell viability assays; for IC50: 72 h, vital dye exclusion and flow cytometry, read-out: Mean IC50 (+/- SEM) in cell viability assay, SupB15 Ph+ ALL. It is filed as cell-based. An excerpt:
(§1) Leukemia cell assays: Effects of chemical changes on ability to kill cells as observed in cell viability assays using the BCR-ABL positive human acute lymphoblastic leukemia (ALL) cell line, Sup-B15 are described. Assays using the Sup-B15 cell line were designed to determine efficacy of azacyclic constrained small molecule analogs of FTY720 in killing leukemia cells. Analogs were generated using the synthesis methods mentioned above. Sup-B15 cells were maintained at 2-3 million/mL in RPMI 1640 (by Mediatech™) supplemented with 10% fetal calf serum (by Sigma-Aldrich™), 10 mM Hepes (by Mediatech™), 55 μM β-mercaptoethanol (by Sigma-Aldrich™), 2 mM L-glutamine (by Mediatech™), and antibiotics. BV173, Nalm-6, and Blin-1 were maintained at 1-2 million/mL and CCRF-CEM at less than 500,000/mL in the same medium. BMp190 cells were created by transducing murine bone marrow cells with pMIC-p190 which expresses the p190 isoform of BCR-Abl and human CD4 from an IRES; these cells were kept at 1-2 million/mL in RPMI supplemented as above.
(§2) Flow cytometry: Much of the biological activity presented is shown through flow cytometry data. […] Here, IC50 flow cytometry assays were used. In them, viability was determined at 72 hours by vital dye exclusion [propium iodide or DAPI (4′,6-diamindino-2-phenylindole)]. To measure nutrient receptor expression following exposure to FTY720 and azacyclic constrained analogs of FTY720, surface 4F2hc expression was measured after 3 hours of drug treatment by staining 150,000 cells with phycoerythrin-conjugated mouse anti-human CD98 (by BD Biosciences™). Analysis was restricted to viable cells.
(§3) All samples for the disclosed sets of data were analyzed on a BD LSR II flow cytometer and data analyzed with FlowJo™ software (by Treestar™). IC50's were calculated and statistical tests were performed using GraphPad Prism™.
(In general: In flow cytometry, cells or beads pass a laser one at a time.)

In series [2] the test system is BMp190 cells (murine bone marrow transduced with BCR-Abl p190). Briefly: Cell viability assay, BCR-Abl p190-expressing murine bone marrow (BM-p190). It is filed as cell-based. Particulars: 72 h, vital dye exclusion and flow cytometry, read-out: Mean IC50 (+/- SEM) in cell viability assay, BM-p190.
From the text: as §1, §2, §3

Series [3] can be described thus: Mouse heart rate by telemetry. It is filed as in vivo. The conditions noted are these: telemetry for 24 h after administration of anti-cancer dose. An excerpt: (§4) As previously discussed, FTY720 itself cannot be used in cancer patients because phosphorylation of FTY720 by SphKs makes FTY720-P, which acts at S1P receptors to cause bradycardia and immunosuppression (on-target effect for primary use).

The subject of the next series is circulating lymphocytes. Briefly: Lymphocyte sequestration (circulating lymphocytes). It is filed as in vivo, mouse. Particulars: number of circulating lymphocytes 12 h after dosage.
From the text: as §4

Series [4] concerns CCRF-CEM Ph- ALL cell line. Briefly: Cell viability assay, CCRF-CEM. Format: cell-based, human. The conditions noted are these: 72 h, vital dye exclusion and flow cytometry, read-out: Mean IC50 (+/- SEM) in cell viability assay, CCRF-CEM Ph- ALL.
From the text: as §1, §2, §3

In series [5] the test system is PC3 prostate cancer cell line. Briefly: Cell viability assay, PC3. Format: cell-based, human. The conditions noted are these: 72 h, vital dye exclusion and flow cytometry, read-out: Mean IC50 (+/- SEM) in cell viability assay, PC3 prostate. Here is the method: as §2, with “In them, viability was determined at 72 hours by vital dye exclusion [propium iodide or DAPI (4′,6-diamindino-2-phenylindole)].” left out, “cells. All samples for the disclosed sets of data were analyzed on a BD LSR II flow cytometer and data analyzed with FlowJo™ software (by Treestar™). IC50's were calculated and statistical tests were performed using GraphPad Prism™.” for “cells.”

The test system of the next series is BV173 Ph+ ALL cell line. Briefly: Cell viability assay, BV173. Particulars: 72 h, vital dye exclusion and flow cytometry, read-out: Mean IC50 (+/- SEM) in cell viability assay, BV173 Ph+ ALL. Format: cell-based, human.
From the text: as §1, §2, §3

The subject of another series is Blin-1 Ph- ALL cell line. Briefly: Cell viability assay, Blin-1. Format: cell-based, human. Particulars: 72 h, vital dye exclusion and flow cytometry, read-out: Mean IC50 (+/- SEM) in cell viability assay, Blin-1 Ph- ALL.
From the text: as §1, §2, §3

In a further series the test system is Nalm-6 Ph- ALL cell line. Briefly: Cell viability assay, Nalm-6. Format: cell-based, human. Particulars: 72 h, vital dye exclusion and flow cytometry, read-out: Mean IC50 (+/- SEM) in cell viability assay, Nalm-6 Ph- ALL.
From the text: as §1, §2, §3

Series [6] concerns DU145 prostate cancer cell line. Briefly: Cell viability assay, DU145. Format: cell-based, human. Particulars: 72 h, vital dye exclusion and flow cytometry, read-out: Mean IC50 (+/- SEM) in cell viability assay, DU145 prostate. Here is the method: as §2, with “In them, viability was determined at 72 hours by vital dye exclusion [propium iodide or DAPI (4′,6-diamindino-2-phenylindole)].” left out, “cells. All samples for the disclosed sets of data were analyzed on a BD LSR II flow cytometer and data analyzed with FlowJo™ software (by Treestar™). IC50's were calculated and statistical tests were performed using GraphPad Prism™.” for “cells.”

For a further series, the target named is T1, sphingosine kinase 2 (Mus musculus, UniProt Q9JIA7).
T1 construct: endogenous in cells
T1 sequence (Q9JIA7 1-617): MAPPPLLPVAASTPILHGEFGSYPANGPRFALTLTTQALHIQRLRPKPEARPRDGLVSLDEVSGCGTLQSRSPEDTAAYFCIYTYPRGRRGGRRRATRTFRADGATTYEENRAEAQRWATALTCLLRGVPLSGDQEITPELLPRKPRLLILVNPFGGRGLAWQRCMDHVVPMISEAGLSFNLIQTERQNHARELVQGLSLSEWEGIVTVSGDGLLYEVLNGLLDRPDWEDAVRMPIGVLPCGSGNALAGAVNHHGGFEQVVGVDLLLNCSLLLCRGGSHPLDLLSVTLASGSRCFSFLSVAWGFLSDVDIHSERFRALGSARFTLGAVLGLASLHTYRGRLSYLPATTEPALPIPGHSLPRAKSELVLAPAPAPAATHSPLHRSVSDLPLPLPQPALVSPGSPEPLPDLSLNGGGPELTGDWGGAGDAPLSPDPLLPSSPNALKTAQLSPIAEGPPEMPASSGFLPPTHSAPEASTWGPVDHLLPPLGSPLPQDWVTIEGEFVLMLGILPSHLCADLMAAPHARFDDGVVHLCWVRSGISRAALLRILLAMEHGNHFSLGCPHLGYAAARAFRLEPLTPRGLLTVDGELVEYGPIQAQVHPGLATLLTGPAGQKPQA
Briefly: Phosphorylation by sphingosine kinase 2 in cells. It is filed as cell-based. Here is the method:
The importance of phosphorylation in the activity of compound 6 was then examined. In this study MEF knockout lines that show the same differential sensitivity to compound 6 relative to its enantiomers as leukemia cells were used (FIG. 10h). […] A phosphate and a non-phosphorylatable analog of compound 6 were then tested.

Consider `CCCCCCCCc1ccc(COC2CCNC2)cc1.Cl` (centres unmarked) [Compound 16], for which, in [1], the “ability to kill leukemia cells, potency compared in words” value (“ability … compared in words” below) is “only a marginal effect on activity”.

For `CCCCCCCCc1ccc(CCC(N)(CO)CO)cc1.Cl` [FTY720, 2-Amino-2-[2-(4-octylphenyl)ethyl]propane 1,3-diol hydrochloride], the IC50 in [2] (Mus musculus) came out at 3.3 ± 0.2 µM; in series [4] (Homo sapiens, CCRF-CEM), 6.8 ± 0.3 µM; in [5] (Homo sapiens), 9.8 ± 0.9 µM; with BV173 Ph+ ALL cell line (Homo sapiens, BV-173), 6.3 ± 0.4 µM; in [1] (Homo sapiens, SUP-B15), 6.8 ± 0.7 µM; with Blin-1 Ph- ALL cell line (Homo sapiens), 5.5 ± 0.1 µM. The IC50 in the series with Nalm-6 Ph- ALL cell line (Homo sapiens, NALM-6) came to 9.6 ± 1.9 µM; in [6] (Homo sapiens, DU-145) it was 6.5 ± 0.9 µM. For the same compound, the “effect on heart rate” value in series [3] is given as “dramatic drop in heart rate”. In the series on circulating lymphocytes, the “lymphocyte sequestration / immunosuppression” value is on record as “causes lymphocyte sequestration”.

As for `CCCCCCCCc1ccc(CO[C@@H]2CN[C@@H](COC)C2)cc1.Cl` [Compound 15, (2R,4S)-2-(methoxymethyl)-4-((4-octylbenzyl)oxy)-pyrrolidine hydrochloride salt], in series [1] (hydrochloride salt), the “ability … compared in words” value was “reduced the potency”.

`CCCCCCCCc1ccc(CO[C@H]2CN[C@H](C)C2)cc1.Cl` [Compound 13]: the “ability … compared in words” value in series [1] is given as “no detectable effect on the potency”.

Consider `CCCCCCCCc1ccc(CO[C@@H]2CN[C@@H](C)C2)cc1.Cl` [Compound 14], for which, in series [1], the “ability … compared in words” value is listed as “decreased the activity”.

Regarding `CCCCCCCCc1ccc(CO[C@H]2CN[C@H](CO)C2)cc1.Cl` [Compound 5], the IC50 in series [2] was 5.7 ± 1.1 µM; in [4], 11 ± 1.3 µM; in [5], 14.3 ± 1.2 µM; with BV173 Ph+ ALL cell line, 10.4 ± 0.7 µM; in [1] it was 7.7 ± 0.8 µM; in the series with Blin-1 Ph- ALL cell line, 7.5 ± 0.1 µM. Also, the IC50 with Nalm-6 Ph- ALL cell line was 15 ± 2.1 µM; in [6], 10.8 ± 0.4 µM. In addition, the “phosphorylation by sphingosine kinase 2 in cells” value on sphingosine kinase 2 is “phosphorylated by sphingosine kinase 2 in cells”.
